# Laboratory results from paper PMC10005332, “It Takes Two to Tango, Part II: Synthesis of A-Ring Functionalised Quinones Containing Two Redox-Active Centres with Antitumour Activities” (Molecules, 2023).
# Where two headings read alike, the source gives them in different places.
# Tests used:
# [1] = system: RAJI (human Burkitt’s lymphoma); test: MTT cytotoxicity assay, RAJI; assay type: cell-based; conditions: for IC50: Homo sapiens, Raji, 72 h, MTT, 72 h exposure, three independent experiments, read-out: Cytotoxic activity IC50 (95% CI) RAJI; for Selectivity index RAJI: ratio of cytotoxicity L929 / RAJI
# How it was run: (§1)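 IC50 values derive from nonlinear regression of MTT read-outs at 595 nm. Mycoplasma-free cells in RPMI 1640 or DMEM with 10% fetal serum were exposed to test compounds for 72 h, then given MTT for 3 h. Selectivity index uses L929 versus tumour-line cytotoxicity.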
# B16 (murine melanoma) = test: MTT cytotoxicity assay, B16; assay type: cell-based; conditions: for IC50: Mus musculus, MTT, 72 h exposure, three independent experiments, read-out: Cytotoxic activity IC50 (95% CI) B16; for Selectivity index B16: ratio of cytotoxicity L929 / B16
# How it was run: as §1
# [2] = system: A549 (human lung carcinoma); test: MTT cytotoxicity assay, A549; assay type: cell-based; conditions: for IC50: Homo sapiens, A549, MTT, 72 h exposure, three independent experiments, read-out: Cytotoxic activity IC50 (95% CI) A549; for Selectivity index A549: ratio of cytotoxicity L929 / A549
# How it was run: as §1
# [3] = system: HCT-116 (human colorectal carcinoma); design: method as in PMID 34778772; conditions: ratio L929 / HCT-116; * data previously described; cited from earlier work
# [4] = system: HL60 (human pro-myelocytic leukaemia); design: method as in PMID 34778772; conditions: ratio L929 / HL60; * data previously described; cited from earlier work
# [5] = system: PC3 (human prostate adenocarcinoma); design: method as in PMID 34778772; conditions: ratio L929 / PC3; * data previously described; cited from earlier work
# [6] = system: K-562 (human chronic myeloid leukaemia); test: MTT cytotoxicity assay, K-562; assay type: cell-based; conditions: for IC50: Homo sapiens, K562, MTT, 72 h exposure, three independent experiments, read-out: Cytotoxic activity IC50 (95% CI) K-562; for Selectivity index K-562: ratio of cytotoxicity L929 / K-562
# How it was run: as §1
# [7] = system: SNB-19 (human astrocytoma); design: method as in PMID 34778772; conditions: ratio L929 / SNB-19; * data previously described; cited from earlier work
# [8] = system: KG1 (human acute myeloid leukaemia); test: MTT cytotoxicity assay, KG1; assay type: cell-based; conditions: for IC50: Homo sapiens, MTT, 72 h exposure, three independent experiments, read-out: Cytotoxic activity IC50 (95% CI) KG1; for Selectivity index KG1: ratio of cytotoxicity L929 / KG1
# How it was run: as §1
# [9] = MTT cytotoxicity assay, L929 control line; assay type: cell-based, mouse; conditions: mouse, L929 fibroblast cells (non-tumoral control line), 72 h exposure, read-out: Cytotoxic activity IC50 (95% CI) L929
# How it was run: as §1
# [10] = system: L929 cells (non-tumoral mouse fibroblast); test: MTT cytotoxicity assay, L929 control line; assay type: cell-based; conditions: 72 h exposure, read-out: Cytotoxic activity IC50 (95% CI) L929
# How it was run: as §1
# [11] = system: HCT-116 (human colorectal carcinoma); test: MTT cytotoxicity assay, HCT-116; assay type: cell-based
# How it was run: as §1
# [12] = system: PC3 (human prostate adenocarcinoma); test: MTT cytotoxicity assay, PC3; assay type: cell-based
# How it was run: as §1
# [13] = system: HL60 (human pro-myelocytic leukaemia); test: MTT cytotoxicity assay, HL60; assay type: cell-based; conditions: for IC50: MTT, 72 h exposure, three independent experiments, read-out: Cytotoxic activity IC50 (95% CI) HL60
# How it was run: as §1
# [14] = system: SNB-19 (human astrocytoma); test: MTT cytotoxicity assay, SNB-19; assay type: cell-based
# How it was run: as §1
compound,measurement,setting,value
"COc1cccc2c1C(=O)c1c(O)c3c(c(O)c1C2=O)C[C@@](O)(C(=O)CO)C[C@@H]3O[C@H]1C[C@H](N)[C@H](O)[C@H](C)O1 [DOXO, doxorubicin, reference compound]",IC50,[1],2.33 µM
same,Selectivity index RAJI,[1],0.7
same,IC50,B16 (murine melanoma),0.06 µM
same,Selectivity index B16,B16 (murine melanoma),30.2
same,IC50,[2],0.57 µM
same,Selectivity index A549,[2],3.0
same,Selectivity index HCT-116,[3],8.2 *
same,Selectivity index HL60,[4],86.0 *
same,Selectivity index PC3,[5],2.3 *
same,IC50,[6],0.91 µM
same,Selectivity index K-562,[6],1.9
same,Selectivity index SNB-19,[7],1.4 *
same,IC50,[8],0.38 µM
same,Selectivity index KG1,[8],4.5
"O=C1C(=O)c2ccccc2C2=C1CC(Cn1cc(CNC3=CC(=O)c4cc5ccccc5cc4C3=O)nn1)O2 (centres unmarked) [Compound 20e, 2-((4-(((1,4-dioxo-1,4-dihydroanthracen-2-yl)amino)methyl)-1H-1,2,3-triazol-1-yl)methyl)-2,3-dihydronaphtho[1,2-b]furan-4,5-dione]",IC50,[1],5.26 µM
same,Selectivity index RAJI,[1],3.0
same,IC50,B16 (murine melanoma),9.57 µM
same,Selectivity index B16,B16 (murine melanoma),1.7
same,IC50,[2],12.7 µM
same,Selectivity index A549,[2],1.3
same,IC50 at 72 h,[9],15.9 µM
same,IC50,[10],15.9 µM
same,IC50,"[11]; Homo sapiens, HCT-116, 72 h, MTT, 72 h exposure, three independent experiments, read-out: Cytotoxic activity IC50 (95% CI) HCT-116",7.2 µM
same,Selectivity index HCT-116,[11]; ratio of cytotoxicity L929 / HCT-116,2.2
same,IC50,[6],7.58 µM
same,Selectivity index K-562,[6],2.1
same,IC50,"[12]; Homo sapiens, MTT, 72 h exposure, three independent experiments, read-out: Cytotoxic activity IC50 (95% CI) PC3",17.6 µM
same,Selectivity index PC3,[12]; ratio of cytotoxicity L929 / PC3,0.9
same,IC50,"[13]; Homo sapiens, HL-60, 72 h",1.6 µM
same,IC50,[13],1.57 µM
same,Selectivity index HL60,[13]; ratio of cytotoxicity L929 / HL60,10.1
same,IC50,[8],37 µM
same,Selectivity index KG1,[8],0.4
same,IC50,"[14]; Homo sapiens, SNB-19, MTT, 72 h exposure, three independent experiments, read-out: Cytotoxic activity IC50 (95% CI) SNB-19",7.87 µM
same,Selectivity index SNB-19,[14]; ratio of cytotoxicity L929 / SNB-19,2.0
